pIC50: −log10 of the molar value.

In general, pIC50 refers to the IC50 on a negative log10 scale, so that one unit is a factor of ten. Higher therefore signals a small IC50.

One assay deals with HDAC2 (Homo sapiens, UniProt Q92769). Kind of assay: HDAC2 enzymatic inhibition assay.
In another assay the target is HDAC3 (Homo sapiens, UniProt O15379). Description: HDAC3 enzymatic inhibition assay.
Another assay has as its target T1, HDAC8 (Homo sapiens, UniProt Q9BY41).
T1 sequence (Q9BY41 1-377): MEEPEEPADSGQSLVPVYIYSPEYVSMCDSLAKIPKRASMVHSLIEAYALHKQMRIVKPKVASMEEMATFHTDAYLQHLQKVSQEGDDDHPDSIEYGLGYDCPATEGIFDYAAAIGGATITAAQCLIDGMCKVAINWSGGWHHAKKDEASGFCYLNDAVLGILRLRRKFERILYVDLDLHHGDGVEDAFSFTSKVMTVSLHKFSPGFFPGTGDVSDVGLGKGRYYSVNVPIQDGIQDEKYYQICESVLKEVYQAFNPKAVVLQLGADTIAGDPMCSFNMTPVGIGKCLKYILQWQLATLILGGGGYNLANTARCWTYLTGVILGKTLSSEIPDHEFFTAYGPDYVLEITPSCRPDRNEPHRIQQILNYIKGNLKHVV
Description: HDAC8 enzymatic inhibition assay.

A further assay addresses HDAC9 (Homo sapiens, UniProt Q9UKV0). Description: HDAC9 enzymatic inhibition assay.
The target of the next assay is T2, HDAC10 (Homo sapiens, UniProt Q969S8).
T2 sequence (Q969S8 1-669): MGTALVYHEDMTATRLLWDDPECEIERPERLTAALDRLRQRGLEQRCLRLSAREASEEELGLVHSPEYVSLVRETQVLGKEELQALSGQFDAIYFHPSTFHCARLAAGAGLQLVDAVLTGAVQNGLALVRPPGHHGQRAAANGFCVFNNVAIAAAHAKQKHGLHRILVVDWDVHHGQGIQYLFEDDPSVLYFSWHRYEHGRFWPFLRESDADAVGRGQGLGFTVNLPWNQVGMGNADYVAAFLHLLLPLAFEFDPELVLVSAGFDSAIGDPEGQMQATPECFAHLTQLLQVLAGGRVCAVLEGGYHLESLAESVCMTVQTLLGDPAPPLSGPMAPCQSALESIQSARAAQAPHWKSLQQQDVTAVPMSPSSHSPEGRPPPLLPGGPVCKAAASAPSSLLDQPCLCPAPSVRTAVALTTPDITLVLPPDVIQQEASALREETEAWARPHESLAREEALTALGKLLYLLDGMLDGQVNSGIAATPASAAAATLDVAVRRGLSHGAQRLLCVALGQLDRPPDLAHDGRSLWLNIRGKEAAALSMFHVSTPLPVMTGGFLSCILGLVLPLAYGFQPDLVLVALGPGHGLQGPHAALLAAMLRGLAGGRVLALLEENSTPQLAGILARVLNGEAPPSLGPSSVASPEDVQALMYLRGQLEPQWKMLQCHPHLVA
Description: HDAC10 enzymatic inhibition assay.

Sequence of HDAC3 (O15379 whole entry): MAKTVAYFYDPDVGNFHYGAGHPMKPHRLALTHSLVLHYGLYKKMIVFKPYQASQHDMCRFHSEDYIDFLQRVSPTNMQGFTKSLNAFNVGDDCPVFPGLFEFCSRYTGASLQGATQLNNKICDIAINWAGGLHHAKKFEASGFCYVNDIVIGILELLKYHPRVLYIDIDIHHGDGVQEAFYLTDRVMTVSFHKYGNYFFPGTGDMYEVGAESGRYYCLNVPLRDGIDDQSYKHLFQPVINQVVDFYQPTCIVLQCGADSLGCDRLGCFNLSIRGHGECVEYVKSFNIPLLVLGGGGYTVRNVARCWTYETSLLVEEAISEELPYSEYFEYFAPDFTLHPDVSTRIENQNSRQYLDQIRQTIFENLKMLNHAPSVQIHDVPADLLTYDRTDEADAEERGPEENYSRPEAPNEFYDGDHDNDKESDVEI
Sequence of HDAC3 (Q9Y618 395-489 partner limits assumed): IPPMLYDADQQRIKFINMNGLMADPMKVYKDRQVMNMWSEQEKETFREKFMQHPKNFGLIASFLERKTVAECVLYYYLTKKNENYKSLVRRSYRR
Sequence of HDAC9 (Q9UKV0 whole entry): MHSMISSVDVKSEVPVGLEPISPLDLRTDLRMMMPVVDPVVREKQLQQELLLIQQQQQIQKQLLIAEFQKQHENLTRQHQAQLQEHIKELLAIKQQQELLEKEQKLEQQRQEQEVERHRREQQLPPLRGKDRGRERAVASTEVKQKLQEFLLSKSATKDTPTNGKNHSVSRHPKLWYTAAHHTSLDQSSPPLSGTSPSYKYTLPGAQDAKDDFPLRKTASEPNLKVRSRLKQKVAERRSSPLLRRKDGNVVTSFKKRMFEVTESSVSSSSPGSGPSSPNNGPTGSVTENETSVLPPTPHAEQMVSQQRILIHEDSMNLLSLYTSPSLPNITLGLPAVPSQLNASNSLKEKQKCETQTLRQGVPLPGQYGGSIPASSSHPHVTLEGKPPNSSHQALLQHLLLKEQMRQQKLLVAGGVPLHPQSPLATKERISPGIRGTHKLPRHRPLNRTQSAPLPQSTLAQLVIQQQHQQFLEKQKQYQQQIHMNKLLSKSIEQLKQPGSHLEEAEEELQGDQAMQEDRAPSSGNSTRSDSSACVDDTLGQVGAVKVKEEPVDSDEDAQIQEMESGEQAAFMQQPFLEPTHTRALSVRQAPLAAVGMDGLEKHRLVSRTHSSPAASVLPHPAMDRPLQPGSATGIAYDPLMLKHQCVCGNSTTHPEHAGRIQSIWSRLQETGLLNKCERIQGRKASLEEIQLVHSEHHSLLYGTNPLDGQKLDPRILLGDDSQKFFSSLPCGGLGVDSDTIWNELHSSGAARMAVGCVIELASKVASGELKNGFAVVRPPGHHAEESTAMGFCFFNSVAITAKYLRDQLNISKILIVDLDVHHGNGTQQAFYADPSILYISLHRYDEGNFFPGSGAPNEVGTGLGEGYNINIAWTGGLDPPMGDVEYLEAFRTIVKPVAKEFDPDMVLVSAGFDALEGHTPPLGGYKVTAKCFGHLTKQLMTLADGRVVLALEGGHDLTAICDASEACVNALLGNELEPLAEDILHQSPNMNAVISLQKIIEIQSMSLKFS
Sequence of HDAC2 (Q92769 whole entry): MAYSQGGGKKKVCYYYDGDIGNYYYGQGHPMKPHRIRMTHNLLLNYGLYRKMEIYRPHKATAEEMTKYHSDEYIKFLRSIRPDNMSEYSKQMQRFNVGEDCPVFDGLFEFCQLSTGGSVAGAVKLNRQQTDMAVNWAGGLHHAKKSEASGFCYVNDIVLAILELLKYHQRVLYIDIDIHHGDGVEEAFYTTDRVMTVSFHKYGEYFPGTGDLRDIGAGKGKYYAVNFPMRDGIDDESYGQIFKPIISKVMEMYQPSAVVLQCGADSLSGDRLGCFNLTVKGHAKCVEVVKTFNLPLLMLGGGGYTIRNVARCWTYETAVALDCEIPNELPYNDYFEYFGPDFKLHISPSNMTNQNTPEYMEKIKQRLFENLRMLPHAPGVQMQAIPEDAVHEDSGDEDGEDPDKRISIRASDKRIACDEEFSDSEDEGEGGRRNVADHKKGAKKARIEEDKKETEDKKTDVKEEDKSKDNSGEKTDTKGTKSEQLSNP

Turning to `Cc1nc2ccc(F)cc2n1Cc1ccc(C(=O)NO)cc1` [30a, 4-[(6-Fluoro-2-methyl-1-benzimidazolyl)methyl]-N-hydroxybenzamide], the pIC50 at HDAC2 is 5.13; against HDAC3 it was 5.00; at HDAC8, 6.43; on HDAC9, 6.33; at HDAC10, 4.93.

The values above are taken from paper PMC4775085 (ACS chemical neuroscience, 2015).
